According to the METLIN SMRT retention time set (Domingo-Almenara et al. 2019):

Test: gradient 5% acetonitrile 3 min, to 50% in 2 min, to 85% in 15 min, held 3 min, 100 µL/min
Settings: column: Zorbax Extend-C18 2.1 x 50 mm; eluents: water / acetonitrile, 0.1% formic acid
Procedure, shortened: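 Retention times come from adduct peaks that were picked computationally and then checked by hand. The standards, pure and pooled in mixtures of ~100 molecules, were run on a Zorbax Extend-C18 column (2.1 × 50 mm, 1.8 μm) at 100 μL/min with water and acetonitrile, each with 0.1% formic acid. Detection was by quadrupole time-of-flight mass spectrometry in positive and negative ionization mode, with a dead volume of 40 μL and a dwell volume of 900 μL.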

Compound | RP-LC retention time [s]
O=C(Nc1cccc(OCc2nnc(-c3ccc(Cl)cc3)o2)c1)c1cnccn1 | 946
CC(C)NC(=O)C1CCN(C(=O)c2cc(-c3ccncc3)n[nH]2)CC1 | 556
COc1ccccc1-c1noc(Cn2ncn3nc(-c4ccc(F)cc4)cc3c2=O)n1 | 996
COc1ccc(-c2cn3c(CC(=O)Nc4ccc(C(F)(F)F)cc4)csc3n2)cc1 | 869
Cc1cccn2c(Nc3ccc4c(c3)OCCO4)c(-c3ccccc3O)nc12 | 719
N#Cc1cccc(-c2cn3c(n2)N(C(=O)C2CCC2)CCC3)c1 | 690
COc1cc(CNCCSc2nnnn2C)cc(Br)c1OCc1ccccc1 | 744
CC(Oc1ccc(C(C)(C)C)cc1)C(=O)Nc1ccnn1Cc1ccco1 (stereo unspecified) | 1020
COc1cc(-n2c(=S)[nH]c3ccccc3c2=O)c(Cl)cc1Cl | 923
CCOc1ccc(OCCNC(=O)NC2CCCCC2)cc1 | 800
CCOc1ccccc1NC(=O)N1CCCC(Cn2c(C)nc3cccnc32)C1 (stereo unspecified) | 618
COCc1nc(CCNC(=O)C2CCCO2)no1 (stereo unspecified) | 593
O=C(Cn1nc2c3cc(-c4ccccc4)nn3ccn2c1=O)Nc1ccc(Br)cc1F | 923
Cc1ccc(-c2noc(Cc3nnc(-c4cccc(C)c4)o3)n2)cc1 | 1130
Cc1ccc(N2C(=O)C3N=NN(Cc4nc(-c5ccc(C)c(C)c5)no4)C3C2=O)cc1 (stereo unspecified) | 1110
Cc1ccc(CNC(=O)C2Cn3cccc3C(=O)N2)o1 (stereo unspecified) | 633
CCSc1nc2ccc(NS(=O)(=O)c3ccccc3)cc2s1 | 997
Cc1ccc(CNC(=O)c2ccc3c(c2)CNCCO3)cc1 | 617
CN(C)S(=O)(=O)c1ccc(C(=O)N2Cc3nn(C(C)(C)C)c(-n4cccc4)c3C2)cc1 | 888
CCN1CCN(CCNC(=O)C2CCCN(c3ncc(-c4ccc(F)cc4)cn3)C2)CC1 (stereo unspecified) | 632

Compound | RP-LC retention time [s]
COc1ccc(Oc2cc3c(cc2NC(=O)Nc2cccc(OC)c2)n(C)c(=O)n3C)cc1 | 920
Cc1ccc(Cl)cc1NC(=O)C1CC(=O)N(CCc2c[nH]c3ccc(F)cc23)C1 (stereo unspecified) | 875
Cc1cnc(C2CN(Cc3cccc(C#N)c3)C2)n1Cc1ccccc1 | 582
Cn1cccc1Cc1nnc(SCC(=O)NO)n1Cc1ccccc1 | 621
C=CCc1c(C)nc2c(-c3ccccc3)cnn2c1NCCN(C)C | 660
CCOc1cc(-c2noc(-c3nnn4c3COC(c3ccc(C)cc3C)C4)n2)ccc1OC (stereo unspecified) | 1250
Cc1nn2c(S(=O)(=O)N3CCC4(CC3)OCCO4)c(C)nc2s1 | 692
CCN1CCN(c2ccc(-c3nc(-c4ccc(OC)cc4)no3)cn2)CC1 | 696
CCOCCCNC(=O)N1CC(Oc2ccc(-c3nc(C)no3)cc2)C1 | 724
O=C(Nc1ccc(Cl)cc1)C1CCN(S(=O)(=O)c2ccc3[nH]c(=O)sc3c2)CC1 | 854
CCOc1ccc(Nc2c(-c3ccc(N(C)C)cc3)nc3cnccn23)cc1 | 813
C=CCN1C(=O)COc2ccc(-c3csc(NC(=O)c4ccc(F)cc4)n3)cc21 | 1010
Cc1ccc(CNC(=O)CSc2ccc(N3CCCC(C(=O)NC4CC4)C3)nn2)cc1 (stereo unspecified) | 643
CC(=O)N1CCc2cc(N3CC(C(=O)Nc4ccc(F)cc4)CC3=O)ccc21 (stereo unspecified) | 699
O=C(Nc1nc(-c2ccccc2)cs1)c1ccc(COc2ccc(Cl)cc2Cl)o1 | 1280
Cc1cc(NC(=O)c2cc(=O)c3ccccc3o2)n(-c2nc(-c3ccc(F)cc3)cs2)n1 | 1240
N#Cc1ccccc1CN1CCC2(CCC2N2CCOCC2)CC1 (stereo unspecified) | 690
CCN(Cc1ccccc1)C(=O)C1CCN(S(=O)(=O)c2ccc3c(c2)NC(=O)CO3)CC1 | 852
Cc1ccccc1CNC(=O)C1(C)CCCN(C(=O)NCCc2ccccc2)C1 (stereo unspecified) | 897

Second part, the molecule after the results:

RP-LC retention time [s] | Compound
747 | O=C(Cc1csc(NC(=O)c2ccsc2)n1)NCCOc1ccc(F)cc1
648 | COc1cccc(S(=O)(=O)N2CCN(C3=CC4=NC(C)CN4C=N3)CC2)c1 (stereo unspecified)
617 | CCCc1nc2cccnc2n1C1CCN(C(=O)Nc2cccc(OC)c2)C1 (stereo unspecified)
613 | CCn1ccc(C(=O)N2CCN(c3nc(CN4CCC(C)CC4)cs3)CC2)n1
1150 | Fc1ccccc1N1CCN(c2ncnc3sc4c(c23)CCC4)CC1
679 | CCc1nc2c(c(=O)n1CC(=O)Nc1cc(C)ccc1C)CN(Cc1ccccc1)CC2
567 | O=C(NC1CC1)[C@@H]1C[C@H](Oc2cccnc2)CN1C(=O)C1CC=CC1
744 | O=C(Cn1nc2c3ccc(Cl)cc3ncn2c1=O)Nc1ccc(F)cc1
706 | Cn1cc(S(=O)(=O)N2CCC(C(=O)NCc3cccs3)CC2)cc1C(=O)N1CCCC1
654 | Cc1c(Cl)cccc1S(=O)(=O)NCC1CCN(C(=O)c2cccn(C)c2=O)CC1
1110 | Cc1ccc(-c2noc(C3CC(=O)N(c4ccc(C)c(F)c4)C3)n2)cc1 (stereo unspecified)
1070 | Cc1nc(-c2cc(S(=O)(=O)Nc3ccc(Br)cc3)c(C)s2)cs1
999 | Cc1ccc(-n2nc(N3CCCC(C(=O)Nc4cccc(C)c4C)C3)ccc2=O)cc1Cl (stereo unspecified)
1100 | CCc1nc(-n2cccc2)sc1C(=O)Nc1ccccc1F
709 | COc1ccc(S(=O)(=O)N2CCCC(C(=O)NCCCO)C2)cc1C (stereo unspecified)
899 | O=C(Cc1ccccc1Cl)NC(c1ccccc1)c1nnc(N2CCCCC2)o1 (stereo unspecified)
1060 | Cc1ccc(S(=O)(=O)N2CCc3c(c(-c4nnc(-c5ccc(F)cc5)o4)nn3C)C2)c(C)c1
699 | Cc1cc2n(n1)CCCN2C(=O)CCC(=O)N1CCc2ccccc2C1
863 | CCOc1ccc(N2C(=O)CN(C(C)c3ccccc3)[C@H]3CS(=O)(=O)C[C@H]32)cc1 (stereo partly specified)
711 | Cc1[nH]c2ccccc2c1C(=O)C(=O)NC1CC(=O)N(c2ccccc2)C1 (stereo unspecified)
860 | CCc1noc(NC(C)=O)c1-c1ccc(OC)c(S(=O)(=O)N2CCc3ccccc32)c1
710 | CCc1ccc2ncc(C#N)c(N3CCC(C(=O)NCc4ccc(F)cc4)CC3)c2c1
677 | NC(=O)C1CCN(C(c2ccccc2F)c2sc3nc(-c4ccco4)nn3c2O)CC1 (stereo unspecified)
685 | CCCNC(=O)C1CCN(c2ccc(SCC(=O)Nc3cc(C)cc(C)c3)nn2)CC1
1380 | CCOc1ccc(OCC)c(NC(=O)C2CCN(c3nccnc3Sc3ccc(C)cc3)CC2)c1
754 | CCOc1cc(-c2ccccc2)nc2ccc(NC(=O)c3cccs3)cc12
605 | O=C(CCCc1ccccc1)NCC(=O)N1CCN(c2ccccn2)CC1
